Laboratory results from a melting point compilation (Tetko et al.).

For `CSC(=NS(=O)(=O)c1ccc(C)cc1)SC`, the melting point was 109 to 110 °C. `O=C(O)c1cc(I)c(I)c(I)c1` showed a melting point of 292 °C. `O=Cc1ccc(-c2nccs2)cc1` showed a melting point of 90 to 91 °C. Work on `CN(N=O)C1=CC(=O)C2(C)CCC1C2(C)C` (centres undefined) yielded a melting point of 167 °C. `FC(F)(F)c1ccc(-c2nc(CCl)no2)cc1` gave a melting point of 48 to 50 °C. In the case of `CC(C)(C)C(CO)CO`, the melting point was 55 °C. Compound `COc1cc(C)cc(OC)c1C=O` has a melting point of 93 °C. With `COc1cc([N+](=O)[O-])c2ncccc2c1` the melting point was 159 °C. `Cc1ccccc1-n1c(C)nc2ccccc2c1=O` gave a melting point of 120 °C. Compound `CCCCCCCCCCCCCCCCCC(=O)Nc1ccc(O)cc1` has a melting point of 134 °C. `CC(=O)OC1CCC2C3CCC4CC=CCC4(C)C3CCC12C` (centres undefined) gave a melting point of 93 to 94 °C. `c1ccc(-c2cc(-c3ccccc3)cc(-c3ccccc3)c2)cc1` gave a melting point of 172 to 175 °C. For `O=C1/C(=C/c2ccc([N+](=O)[O-])cc2)SC(=S)N1CN1CCOCC1`, the melting point was 169 °C. For `Cc1cc(Br)ccc1N`, the melting point was 59.5 °C. Compound `CC[C@@H]1CCC[C@H]1CC` (relative stereo) has a melting point of -95 °C. In the case of `Cc1nc(N)nc(Cl)c1Cc1ccccc1`, the melting point was 195 to 196 °C. For `CC(C)[C@@H](N)CO`, the melting point was 32 to 36 °C. For `COC(=O)c1cccoc1=O`, the melting point was 76 °C. With `COC1(OC)CC[C@]2(C)[C@H]3CC[C@]4(C)C(=O)CC[C@@]4(O)[C@@H]3CC[C@@]2(C)C1` the melting point was 175 to 176 °C. In the case of `CN1C(=O)c2ccccc2C1OC(=O)c1ccccc1` (centres undefined), the melting point was 93 °C. In the case of `CC1(C)OC(=O)C(=C2CCCN2)C(=O)O1`, the melting point was 171 to 175 °C. `CC(C)(C)OC(=O)N1CCNCC1` showed a melting point of 47 to 49 °C. For `O=C(c1ccccc1)c1ccc2c3c(cccc13)CC2`, the melting point was 101 °C. Compound `OCC(I)CC(F)(F)C(F)(F)C(F)(F)C(F)(F)C(F)(F)C(F)(F)F` (centres undefined) has a melting point of 45 to 46 °C. `c1ccc2c(c1)OCCOCCOCCOc1ccccc1OCCO2` showed a melting point of 117 to 120 °C. With `Brc1ccc2c3c(cccc13)CC2` the melting point was 52 °C. For `CC(C)(C)c1ccc2c(c1)-c1cc(C(C)(C)C)ccc1C2`, the melting point was 81 °C. `CC(=O)OC1CCC2(C)C(CCC3C4=C(CCC32)C(C)(C#Cc2ccccc2)CC4)C1` (centres undefined) showed a melting point of 135 to 136 °C. Compound `O=C(C(=O)c1ccco1)c1ccco1` has a melting point of 164 °C. Compound `N=C(N)NCCS(=O)(=O)O` has a melting point of 263 to 265 °C. With `FC(F)=C(Cl)Cl` the melting point was -116 °C. Work on `Cc1ccc(N)c([N+](=O)[O-])c1` yielded a melting point of 116 °C. Work on `CCCC(CCC)C(C(=O)O)C(=O)OCC` (centres undefined) yielded a melting point of 30 to 34 °C. With `CCN(CC)CC(=O)OCC(=O)C1(O)CCC2C3CCC4=CC(=O)CCC4(C)C3C(O)CC21C` (centres undefined) the melting point was 162 °C. For `O=CCCCC=O`, the melting point was -6 °C. Compound `Cc1cc(O)c(C)cc1N` has a melting point of 242 °C. For `O=C1CCc2cc(F)ccc21`, the melting point was 39 °C. In the case of `CC(=O)NC(Cc1c[nH]c2ccccc12)C(N)=O` (centres undefined), the melting point was 195 °C. In the case of `COC(=O)c1ccccc1SCC(C)=O`, the melting point was 60 to 61 °C. Work on `C#CC(C)(C)Oc1ccc(C#N)cc1` yielded a melting point of 30 to 32 °C. With `Cn1nc(-c2cccs2)cc1C(=O)O` the melting point was 173 to 174 °C. In the case of `CCCCCCCCCCCC1CCCC1`, the melting point was -10 °C. In the case of `C=C1N(C)c2ccccc2C1(C)C`, the melting point was -8 °C. `CCCCC(C#N)(Cn1ccnc1)c1ccccc1` (centres undefined) showed a melting point of 161 °C. For `CCCC(=NOCC)C1=C(O)CC(C2CCCSC2)CC1=O` (centres undefined), the melting point was 37.1 °C. With `O=C1NC(=O)C2CC(c3ccccc3)CCC12` (centres undefined) the melting point was 134 to 136 °C. `CCCCCCCCCCCCCCCCCC(=O)OCCC(C)C` gave a melting point of 25.5 °C. With `O=C(O)c1ccc(F)cc1O` the melting point was 191 °C. Work on `CCc1c(C)cc(C)cc1C` yielded a melting point of -16 °C. `CC1(C)[C@H](C(=O)OC(C#N)c2cccc(Oc3ccccc3)c2)[C@@H]1C=C(Cl)Cl` (some centres undefined) showed a melting point of 79 °C. In the case of `CCn1c2ccccc2c2cc(C=O)ccc21`, the melting point was 85 to 91 °C. Compound `O=c1[nH]c(=S)[nH]c2ccccc12` has a melting point of 320 to 322 °C. `COc1ccc(C=O)c(C)c1C` gave a melting point of 53 °C. For `COc1ccccc1C=C(C(=O)O)c1ccccc1`, the melting point was 158 °C. `CC(=C(CCOC(=O)c1ccccc1)SSC(CCOC(=O)c1ccccc1)=C(C)N(C=O)Cc1cnc(C)nc1N)N(C=O)Cc1cnc(C)nc1N` gave a melting point of 146 °C. Work on `CCCCCC(C)OC(=O)COc1ccc(Cl)c2cccnc12` (centres undefined) yielded a melting point of 69.4 °C. `CCCCCCCCCCCC(C)C` gave a melting point of -25 °C. `FC(F)(F)CCBr` gave a melting point of less than 25 °C. Work on `COC1=CC(=O)OC1` yielded a melting point of 60 to 65 °C. `CC(CC(=O)O)C1CCC2C3C=CC4CC(O)CCC4(C)C3CC(O)C12C` (centres undefined) showed a melting point of 181 °C. `NC(=O)c1ccc(F)cc1C(F)(F)F` gave a melting point of 136 °C. `CCOC(=O)c1ccc(O)c(OC)c1` showed a melting point of 44 °C. Compound `O=S(=O)(Cl)c1ccc(Oc2ccccc2)cc1` has a melting point of 44 °C. For `COC(=O)c1cc(O)c(O)c(O)c1`, the melting point was 262 °C. With `CCN(C(=O)Oc1cccc(NC(=O)OC(C)C)c1)c1ccccc1` the melting point was 110 °C. For `CC12CCC(C(=C/O)/C1=N\NC(N)=O)C2(C)C` (centres undefined), the melting point was 205 to 206 °C. Work on `COc1cccc(C#N)c1` yielded a melting point of 23 °C. `NNC(N)=S` gave a melting point of 183 °C. Compound `O=C(O)c1c(-c2ccccc2)nnc2ccccc12` has a melting point of 216 °C. `N#CC(N)C(N)=O` (centres undefined) showed a melting point of 120 to 124 °C. Compound `Nc1ccc(Nc2ccc(N)cc2)cc1` has a melting point of 158 °C. For `Cc1nc(-c2ccc(C(F)(F)F)cc2)sc1C=O`, the melting point was 131 to 133 °C. In the case of `COc1ccc(-n2nc(C(=O)c3cccs3)s/c2=N/C(=O)c2ccccc2)cc1`, the melting point was 235 °C. For `NCc1csc2ccc(Br)cc12`, the melting point was 37 to 38 °C. `Cc1cc(=O)n(N)c(=S)[nH]1` showed a melting point of 262 °C. For `C=CC(=O)OCCN(C)C`, the melting point was -60 °C. `CCCCCCCCCCCC(=O)N(C)CC(=O)O` gave a melting point of 44 to 48 °C. Work on `NNC(=O)c1ccc(N)c(N)c1` yielded a melting point of 149 °C. With `COC(=O)C(C)N(C(=O)Cc1ccccc1)c1c(C)cccc1C` (centres undefined) the melting point was 79 °C. Work on `N#CCc1ccc(Cc2ccccc2)cc1` yielded a melting point of 35.5 °C. `COc1ccc(NC(=S)c2ccccc2)cc1` showed a melting point of 133 °C. With `O=c1[nH]c2scc(-c3ccccc3)c2c(=O)n1-c1cccc(C(F)(F)F)c1` the melting point was 231 to 233 °C. Work on `N#Cc1cc2[nH]c(=O)c(=O)[nH]c2cc1[N+](=O)[O-]` yielded a melting point of 300 °C. `CC(=O)N(CC(O)CO)c1c(I)c(C(=O)NCC(O)CO)c(I)c(C(=O)NCC(O)CO)c1I` (centres undefined) gave a melting point of 177 °C. `CCOCCC(=O)OCC` showed a melting point of -75 °C. `Nc1cc(-c2ccc(Cl)cc2)nc(N)n1` gave a melting point of 158 to 161 °C. In the case of `O=C1OC(=O)C2Cc3ccccc3CC12` (centres undefined), the melting point was 188 °C. With `CC(C)CC=NO` the melting point was 48.5 °C. Compound `Cc1cc(C(F)(F)F)cc(NN)n1` has a melting point of 79 to 81 °C. Work on `Nc1cccc2cc3ccccc3cc12` yielded a melting point of 116 °C. Compound `O=C(NC(Cc1cccnc1)C(=O)O)OCC1c2ccccc2-c2ccccc21` (centres undefined) has a melting point of 166 °C. In the case of `O=C(O)c1cccc(F)c1O`, the melting point was 147 °C. For `c1ccc(CN(CC2=NCCN2)c2ccccc2)cc1`, the melting point was 120 °C. With `Cc1ccc(NC(=O)NC(C)(C)c2ccccc2)cc1` the melting point was 203 °C. In the case of `O=C(C=P(c1ccccc1)(c1ccccc1)c1ccccc1)OCc1ccccc1`, the melting point was 120 to 127 °C. Compound `COc1ccc(Cl)cc1C(=O)O` has a melting point of 99 °C. In the case of `Nc1cc(Cl)cc(Cl)c1O`, the melting point was 97 °C. Work on `NC(=S)Nc1ccccc1C(F)(F)F` yielded a melting point of 158 to 159 °C. `Nc1cccc(-c2ccsc2)c1` gave a melting point of 89 °C. In the case of `Cc1ccccc1C(=O)Nc1cccc(OC(C)C)c1`, the melting point was 92.5 °C. `Cc1ccc(OCC(=O)O)c(C)c1` gave a melting point of 141 °C. `Clc1cc(Cl)c(OCC#CI)cc1Cl` gave a melting point of 114 °C. In the case of `Cc1cc(C)c(N)c(Br)c1`, the melting point was 44 °C. `CCCCN1CCCCC1C(=O)Nc1c(C)cccc1C` (centres undefined) gave a melting point of 107 °C. In the case of `CC(C)(C)c1cc(C(C)(C)C)c([N+](=O)[O-])c(C(C)(C)C)c1`, the melting point was 205 to 206 °C. `CC12CCC(C1(C)C)C(CC(Br)Cc1ccccc1)(C1(CC(Br)Cc3ccccc3)C(=O)C3(C)CCC1C3(C)C)C2=O` (centres undefined) gave a melting point of 215 °C. In the case of `CN(C(=S)C(=O)c1ccccc1)c1ccccc1`, the melting point was 109 °C. Compound `COC(=O)c1ccc(N)c(C)c1` has a melting point of 116 to 117 °C. Compound `NCCOCCO` has a melting point of -11 °C. Compound `COC(=O)c1nc(Cl)c(Cl)nc1N` has a melting point of 232 °C. In the case of `CC1=NC2(CCCCC2)[N+]([O-])=C1`, the melting point was 112 to 116 °C. With `O=C(O)CNC(=O)c1ccccc1` the melting point was 222 °C. Work on `COc1ccc(Br)cc1C#N` yielded a melting point of 91 °C. `Brc1ccc(Br)s1` showed a melting point of -6 °C. `O=C(O)CC(=O)O` gave a melting point of 136 °C. `O=C1OC(CO)C(O)C1O` (centres undefined) showed a melting point of 83 to 85 °C. For `CCOc1ccc(CO)cc1OC`, the melting point was 54 to 59 °C. `O=C(O)CC[C@H]1CC[C@H](CCC(=O)O)C1=O` showed a melting point of 121 °C. `CN1CCC(N(Cc2ccccc2)c2ccccc2)CC1` gave a melting point of 114 °C. With `O=C1C(=O)c2c3ccccc3cc3cccc1c23` the melting point was 268 to 270 °C. Work on `CCOc1ccccc1C(C)=O` yielded a melting point of 40 °C. `O=C(O)c1c(C(F)(F)F)ccnc1Cl` showed a melting point of 159 °C. For `O=C(O)C1CC2CCC1C2` (centres undefined), the melting point was 40 °C. Work on `ICCCI` yielded a melting point of -20 °C. In the case of `C=CC#CC=C`, the melting point was -88 °C. Compound `CCOC(=O)c1c(-c2cccs2)csc1N` has a melting point of 85 to 87 °C. Work on `C=CCc1cc(OC)c(OC)c(OC)c1OC` yielded a melting point of 25 °C. In the case of `C[C@]12CCC(=O)C=C1C(=O)C[C@@H]1[C@@H]2CC[C@@]2(C)[C@H]1CCC21OCCO1`, the melting point was 162 °C. `CC(C)(C)C(C)(C)O` gave a melting point of 17 °C. `COc1ccc(CC2c3cc(OC)c(OC)cc3CCN2C)cc1O` (centres undefined) gave a melting point of 184 °C. In the case of `CN(C)C(c1ccccc1)c1ccccc1`, the melting point was 69 °C. `CC1=CCCC1C` (centres undefined) showed a melting point of -118 °C. In the case of `CCOC(=O)C1=C(C)NC(=O)NC1c1ccccc1` (centres undefined), the melting point was 180 °C. Work on `CCOc1cccc(OCC(F)(F)F)c1C#N` yielded a melting point of 78 to 80 °C.
